Assay results reported in US20220249674A1, “BIOACTIVE SAPONIN LINKED TO A FUNCTIONAL MOIETY” (priority 2019, published 2022).
Like-named read-outs stand apart in the source and are kept apart here.

Legend:
NIH-3T3 cells = settings: saporins; cited from earlier work
[1] = combinatory treatment with saponins; cited from earlier work
HeLa cells [2] = assay: Cell viability assay, inhibition of SO1861-mediated endosomal escape by polymeric structures (Example 19); format: cell-based; settings: SO1861 series + […] dianthin-EGF, 500 nM PAMAM (derivative) or chloroquine, 667 nM dendron
mammalian cells = assay: Cell-based bioassay of endosomal escape enhancement by QS-21; settings: 2.5 microgram/ml; effector moiety EGF-dianthin
Source text: The effector moiety exposed to the cells was EGF-dianthin.

[3] = test system: SK-BR-3, JIMT-1, MDA-MB-468, A431, CaSki, HeLa, A2058, BT-474; assay: Relative cell viability, mAb / toxin / mAb-toxin monotherapy (FIG. 11); format: cell-based; set-up: dose or concentration left out as unconfirmed; settings: panel of cell lines
Protocol: After treatment the cells were incubated for 72 hr at 37° C. before the cell viability was determined by a MTS-assay, performed according to the manufacturer's instruction (CellTiter 96® AQueous One Solution Cell Proliferation Assay, Promega). Briefly, the MTS solution was diluted 20× in DMEM without phenol red (PAN-Biotech GmbH) supplemented with 10% FBS (PAN-Biotech GmbH). […] Subsequently, the optical density at 492 nm was measured on a Thermo Scientific Multiskan FC plate reader (Thermo Scientific). For quantification the background signal of ‘medium only’ wells was subtracted from all other wells, before the ratio of untreated/treated cells was calculated, by dividing the background corrected signal of untreated wells over the background corrected signal of the treated wells.

[4] = test system: EGFR expressing cells (e.g. A431, HeLa); format: cell-based; set-up: key: Cell killing activity (+ or −); Cell killing activity (+ or −)
Source text: The saponin is either linked to the ligand directly, or via a (cleavable) linker, via a scaffold, a carrier protein, etc., etc.

A431 cells = format: cell-based, human; settings: chloroquine coadministration, with cetuximab-saporin (FIG. 52)
Protocol: Cells were seeded in a 96 well plate at 5.000-10.000 c/w in 100 μL/well and incubated overnight at 37° C. […] The media was removed from the cell culture plate and replaced by 180 μL culture media, followed by the addition of 20 μL treatment-mix/well. […] In the case that endosomal acidification inhibitors (chloroquine (Sigma Aldrich) or bafilomycin A1 (Enzo Life Sciences)) were used, the cell culture media in step 1 of treatment was replaced by 180 μL media containing 1 μM chloroquine or 0.2 μM bafilomycin A1. The plate was incubated for 1 hour at 37° C., before the 10× treatment-mix samples were added. The remaining incubation and treatment steps were performed according to standard procedures known in the field.

HeLa cells [5] = assay: Cell-based bioassay of chemically modified SO1861 with dianthin-EGF (Example 8)
Protocol: HeLa cells were incubated for 72 h with the following constructs and cell viability before and after the 72 h-incubation was assessed. In the experiments, cells were exposed to 1.5 μM dianthin-EGF conjugate. A negative control were cells incubated with buffer vehicle and 10 microgram/ml saponin, without dianthin-EGF. Cell viability was set to 100% for the control in which both saponin and EGF-dianthin were omitted. […] Cell viability after 72 h was essentially 0%. For the chemically modified saponin variants, 10 microgram/ml saponin was tested in combination with 1.5 μM dianthin-EGF.

[6] = pH dependent hydrolysis of the hydrazone bond (MALDI-TOF-MS); format: physicochemical; settings: HCl solution at pH 3

CC1(C)[C@@H](O[C@H]2O[C@H](C(=O)O)[C@@H](O)[C@H](O)[C@H]2O[C@@H]2O[C@H](C(=O)O)[C@@H](O)[C@H](O)[C@H]2O)CC[C@]2(C)[C@H]3C(=O)C=C4[C@@H]5C[C@@](C)(C(=O)O)CC[C@]5(C)CC[C@@]4(C)[C@]3(C)CC[C@@H]12 [glycyrrhizic acid]
enhancing effect on toxin toxicity (in words) (NIH-3T3 cells): do hardly have any positive effect

Pseudomonas exotoxin A: bacterial toxin
enhancement of cytotoxicity by saponins (in words) [1]: remained unaffected

CCN(CC)CCCC(C)Nc1ccnc2cc(Cl)ccc12 (centres unmarked) [chloroquine]
inhibition of SO1861-mediated endosomal escape of the targeted toxin (in words) (HeLa cells [2]): inhibit the SO1861-mediated endosomal escape of the targeted toxin

QS-21
endosomal escape enhancement (in words) (mammalian cells): capable of enhancing endosomal escape

saporin
relative cell viability (in words) [3]: do not or hardly have any influence on cell viability

CC(=O)OC1C(C)OC(OC2C(C)OC(OC(=O)[C@]34CCC(C)(C)CC3C3=CCC5[C@@]6(C)CC[C@H](OC7OC(C(=O)O)C(O)C(OC8OCC(O)C(O)C8O)C7OC7OC(CO)C(O)C(O)C7O)[C@@](C)(/C=N/NC(=O)CCCCCN7C(=O)C=CC7=O)C6CC[C@@]5(C)[C@]3(C)C[C@H]4O)C(OC3OC(C)C(OC4OCC(O)C(OC5OC(CO)C(O)C(O)C5O)C4O)C(O)C3O)C2O)C(O)C1OC1OCC(O)C(O)C1O (some centres unmarked) [SO1861-EMCH]
Cell killing activity ([4]; 10 μg/ml SO1861 (conjugate) + […] EGFdianthin): + | Cell killing activity ([4]; 10 μg/ml SO1861 (conjugate), without EGFdianthin): − | activity when endosomal acidification is blocked (in words) (A431 cells): strongly reduces the activity | cell viability (in words) (HeLa cells [5]): reduced cell viability | hydrolysis of the hydrazone bond (in words) [6]: responsive towards hydrolysis and gets cleaved

helianthoside
enhancing effect on toxin toxicity (in words) (NIH-3T3 cells): do hardly have any positive effect
